From PMC11984392, “EphA2-targeted alpha-particle theranostics for enhancing PDAC treatment” (Theranostics, 2025)
Read-outs that look alike come from different tables or passages of the source. *1 amine or outer side, *2 acyl side, *3 side chain or, on linkers, in order; H or OH if unused. Where a SMILES comes first, the peptide text is derived from it. Bridges are numbered along the chain shown (N, C = ends). [ ]: non-standard residue; d: D form. The star is where a group is joined. TATA = O=C(CC[*:1])N1CN(C(=O)CC[*:2])CN(C(=O)CC[*:3])C1; NOTA = O=C(O)CN1CCN(CC(=O)O)CCN(CC(=O)*)CC1; Hyp = O=C(O)[C@@H]1C[C@@H](O)CN1; hArg = N=C(N)NCCCC[C@H](N)C(=O)O; PEG2 = NCCOCCOCCC(=O)O; Sar = CNCC(=O)O

Assay: Ex vivo biodistribution
Design: species or system NSG mice
Settings: both sexes, NSG, mouse, in vivo, iv, 80 uCi, total radioactivity, mean ± SEM (n = 4 or 5); for tissue uptake at 5 min / tissue to tissue ratio at 5 min: 5 min p.i.; for tissue uptake at 5 min / tissue uptake at 0.5 h / tissue uptake at 1 h / tissue uptake at 1.5 h / tissue uptake at 2 h: i.v.; for tissue to tissue ratio at 5 min / tissue to tissue ratio at 0.5 h / tissue to tissue ratio at 1 h / tissue to tissue ratio at 1.5 h: dimensionless; for tissue uptake at 0.5 h / tissue to tissue ratio at 0.5 h: 30 min p.i.; for tissue uptake at 1 h / tissue to tissue ratio at 1 h: 60 min p.i.; for tissue uptake at 1.5 h / tissue to tissue ratio at 1.5 h: 90 min p.i.; for tissue uptake at 2 h: 120 min p.i.
Method: Animal studies were performed under Johns Hopkins University Animal Care and Use Committee (ACUC)-approved protocol (Principal investigator: Sridhar Nimmagadda, Ph.D. and Protocol number M021M175). Male and Female NSG mice (5-6 weeks old) were purchased from JHU immunocompromised core and used to establish xenografts by administering cells subcutaneously (top right flank, unless otherwise noted) to form various tumor models within 3-4 weeks. Following cell numbers were used: Panc1, AsPC1, BxPC3 (1 M), Hs766T and SU8686 (2 M), CFPAC and Panc1005 (5 M). Imaging or biodistribution studies (n = 3-5) were conducted on mice with tumor volumes of 100-200 mm^3. The Panc1 orthotopic tumor model was established by surgically implanting a 3-5 mm^3 section of Panc1 tumor xenograft directly onto the pancreas. The implanted tumors were allowed to grow and were ready for imaging after 10 days of implantation.
Mice with 100-200 mm^3 tumor volume were used for ex vivo biodistribution studies. For radiotracer pharmacokinetics and dosimetry studies, mice with Panc1 tumor xenograft received ~80 µCi (2.96 MBq) [^68Ga]AJ201 and were sacrificed at pre-determined time points (5, 30, 60, 90 and 120 min). All other mice were injected with ~50 µCi (1.85 MBq; 0.2 to 0.5 nmol) Ga-68 labeled radiotracer and were sacrificed at 60 min. The selected tissues were collected, weighed, counted, and their %ID/g values calculated for biodistribution analysis. For pharmacokinetics and dosimetry studies, selected tissues included blood, muscle, tumor, thymus, heart, lung, liver, pancreas, stomach, small intestine, large intestine, spleen, adrenals, kidney, bladder, femur, brain and tumor xenografts. For other studies, selected tissues were blood, muscle, tumor, heart, lung, liver, pancreas, small intestine, spleen, kidney.

[1] = read-out: Stomach with contents uptake

SMILES: CC(C)C[C@@H]1NC(=O)[C@@H]2CSCCC(=O)N3CN(CN(C3)C(=O)CCSC[C@H](NC(=O)[C@H](CC(=O)O)NC(=O)[C@H](CCCCNC(=N)N)NC(=O)[C@H](C)NC(=O)CNC(=O)CN(C)C(=O)CN(C)C(=O)CN(C)C(=O)[C@H](CCCNC(=N)N)NC(=O)CNC(=O)CCOCCOCCNC(=O)CN3CCN(CC(=O)O)CCN(CC(=O)O)CC3)C(=O)N3C[C@H](O)C[C@H]3C(=O)N[C@@H](CC(C)C)C(=O)N[C@@H](C(C)C)C(=O)N[C@@H](CC(N)=O)C(=O)N3CCC[C@H]3C(=O)N[C@@H](CC(C)C)C(=O)N2)C(=O)CCSC[C@@H](C(N)=O)NC(=O)[C@H](CCCCNC(=N)N)NC(=O)[C@H](Cc2c[nH]c3ccccc23)NC(=O)[C@@H](CC(=O)O)NC(=O)[C@@H]2CCCN2C(=O)[C@H](Cc2c[nH]cn2)NC1=O [[^68Ga]AJ201, metal not drawn] ({NOTA-PEG2}-GR[Sar][Sar][Sar]GA[hArg]DC[Hyp]LVNPLCLHP[dD]W[hArg]C-NH2; linker 10-17-24 via TATA)
- tissue uptake at 5 min (read-out: Blood uptake): 8.2 ± 0.92 %ID/g
- tissue uptake at 5 min (read-out: Brain uptake): 0.4 ± 0.08 %ID/g
- tissue uptake at 5 min (read-out: Heart uptake): 4.19 ± 1.06 %ID/g
- tissue uptake at 5 min (read-out: Liver uptake): 4.25 ± 0.99 %ID/g
- tissue uptake at 5 min (read-out: Lung uptake): 8.24 ± 0.93 %ID/g
- tissue uptake at 5 min (read-out: Muscle uptake): 1.79 ± 0.24 %ID/g
- tissue uptake at 5 min (read-out: Pancreas uptake): 3.24 ± 0.08 %ID/g
- tissue uptake at 5 min [1]: 1.8 ± 0.39 %ID/g
- tissue uptake at 5 min (read-out: Thymus uptake): 4.61 ± 0.51 %ID/g
- tissue uptake at 5 min (read-out: Tumor uptake): 7.06 ± 0.48 %ID/g
- tissue to tissue ratio at 5 min (read-out: Tumor/Muscle ratio): 4.12 ± 0.66
- tissue to tissue ratio at 5 min (read-out: Tumor/Pancreas ratio): 2.18 ± 0.14
- tissue to tissue ratio at 5 min (read-out: Tumor/blood ratio): 0.89 ± 0.14
- tissue uptake at 0.5 h (read-out: Blood uptake): 1.61 ± 0.18 %ID/g
- tissue uptake at 0.5 h (read-out: Brain uptake): 0.09 ± 0.01 %ID/g
- tissue uptake at 0.5 h (read-out: Heart uptake): 0.97 ± 0.15 %ID/g
- tissue uptake at 0.5 h (read-out: Liver uptake): 1.15 ± 0.19 %ID/g
- tissue uptake at 0.5 h (read-out: Lung uptake): 2.29 ± 0.26 %ID/g
- tissue uptake at 0.5 h (read-out: Muscle uptake): 1.11 ± 0.34 %ID/g
- tissue uptake at 0.5 h (read-out: Pancreas uptake): 0.74 ± 0.1 %ID/g
- tissue uptake at 0.5 h [1]: 0.77 ± 0.31 %ID/g
- tissue uptake at 0.5 h (read-out: Thymus uptake): 2.35 ± 0.66 %ID/g
- tissue uptake at 0.5 h (read-out: Tumor uptake): 6.96 ± 0.31 %ID/g
- tissue to tissue ratio at 0.5 h (read-out: Tumor/Muscle ratio): 6.4 ± 3.6
- tissue to tissue ratio at 0.5 h (read-out: Tumor/Pancreas ratio): 7.08 ± 2.57
- tissue to tissue ratio at 0.5 h (read-out: Tumor/blood ratio): 3.31 ± 1.17
- tissue uptake at 1 h (read-out: Blood uptake): 0.49 ± 0.07 %ID/g
- tissue uptake at 1 h (read-out: Brain uptake): 0.04 ± 0.01 %ID/g
- tissue uptake at 1 h (read-out: Heart uptake): 0.29 ± 0.08 %ID/g
- tissue uptake at 1 h (read-out: Liver uptake): 0.32 ± 0.02 %ID/g
- tissue uptake at 1 h (read-out: Lung uptake): 0.65 ± 0.04 %ID/g
- tissue uptake at 1 h (read-out: Muscle uptake): 0.21 ± 0.05 %ID/g
- tissue uptake at 1 h (read-out: Pancreas uptake): 0.16 ± 0.01 %ID/g
- tissue uptake at 1 h [1]: 0.15 ± 0.03 %ID/g
- tissue uptake at 1 h (read-out: Tumor uptake): 4.68 ± 0.25 %ID/g
- tissue to tissue ratio at 1 h (read-out: Tumor/Muscle ratio): 25.8 ± 6.71
- tissue to tissue ratio at 1 h (read-out: Tumor/Pancreas ratio): 28.8 ± 0.97
- tissue to tissue ratio at 1 h (read-out: Tumor/blood ratio): 9.86 ± 1.1
- tissue uptake at 1.5 h (read-out: Blood uptake): 1.18 ± 0.27 %ID/g
- tissue uptake at 1.5 h (read-out: Brain uptake): 0.05 ± 0.01 %ID/g
- tissue uptake at 1.5 h (read-out: Femur uptake): 0.68 ± 0.11 %ID/g
- tissue uptake at 1.5 h (read-out: Heart uptake): 0.76 ± 0.13 %ID/g
- tissue uptake at 1.5 h (read-out: Liver uptake): 0.9 ± 0.17 %ID/g
- tissue uptake at 1.5 h (read-out: Lung uptake): 1.4 ± 0.27 %ID/g
- tissue uptake at 1.5 h (read-out: Muscle uptake): 0.37 ± 0.11 %ID/g
- tissue uptake at 1.5 h (read-out: Pancreas uptake): 0.57 ± 0.15 %ID/g
- tissue uptake at 1.5 h [1]: 0.27 ± 0.06 %ID/g
- tissue uptake at 1.5 h (read-out: Thymus uptake): 1.64 ± 0.42 %ID/g
- tissue uptake at 1.5 h (read-out: Tumor uptake): 6.04 ± 1.46 %ID/g
- tissue to tissue ratio at 1.5 h (read-out: Tumor/Muscle ratio): 17 ± 2.11
- tissue to tissue ratio at 1.5 h (read-out: Tumor/Pancreas ratio): 10.7 ± 0.2
- tissue to tissue ratio at 1.5 h (read-out: Tumor/blood ratio): 5.43 ± 1.32
- tissue uptake at 2 h (read-out: Blood uptake): 0.9 ± 0.29 %ID/g
- tissue uptake at 2 h (read-out: Brain uptake): 0.05 ± 0.01 %ID/g
- tissue uptake at 2 h (read-out: Femur uptake): 0.83 ± 0.33 %ID/g
- tissue uptake at 2 h (read-out: Heart uptake): 0.68 ± 0.17 %ID/g
- tissue uptake at 2 h (read-out: Liver uptake): 0.84 ± 0.13 %ID/g
- tissue uptake at 2 h (read-out: Lung uptake): 1.15 ± 0.22 %ID/g
- tissue uptake at 2 h (read-out: Muscle uptake): 0.26 ± 0.04 %ID/g
